Legend:
[1] = biological target: T1, SN23-Syn4-Vp8 complex (Rattus norvegicus, UniProt O70377+Q08850+Q9WUF4); assay: Co-immunoprecipitation of SNARE complexes in activated RBL-2H3 cells, anti-SNAP-23 blot; type: cell-based; details: peptides added to the medium after A23187 pretreatment; IP of Vp8, blot anti-SNAP-23 (Figure 4C)
T1 construct: Lysates of RBL-2H3 cells; endogenous in cells; host or cells: RBL-2H3 (ATCC CRL-2256)
T1 sequence (Q08850 1-298): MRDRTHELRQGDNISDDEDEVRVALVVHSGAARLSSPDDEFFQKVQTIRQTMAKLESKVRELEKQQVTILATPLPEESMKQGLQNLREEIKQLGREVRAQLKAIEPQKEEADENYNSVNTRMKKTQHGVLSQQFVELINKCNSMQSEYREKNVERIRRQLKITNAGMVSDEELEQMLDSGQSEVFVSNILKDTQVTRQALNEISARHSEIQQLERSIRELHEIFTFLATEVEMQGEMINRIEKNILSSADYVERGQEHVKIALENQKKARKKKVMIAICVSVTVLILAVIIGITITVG
T1 sequence (O70377 1-210): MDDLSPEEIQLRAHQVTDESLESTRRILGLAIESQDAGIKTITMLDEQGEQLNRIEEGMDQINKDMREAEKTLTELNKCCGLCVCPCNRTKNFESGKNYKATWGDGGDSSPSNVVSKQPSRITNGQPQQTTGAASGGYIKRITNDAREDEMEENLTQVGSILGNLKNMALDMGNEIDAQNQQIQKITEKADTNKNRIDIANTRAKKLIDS
T1 sequence (Q9WUF4 1-100): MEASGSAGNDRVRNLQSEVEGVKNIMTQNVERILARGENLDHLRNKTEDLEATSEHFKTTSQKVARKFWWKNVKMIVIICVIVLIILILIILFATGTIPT
Method: Lysates of RBL-2H3 cells (0.5–1 × 10^6 cells), which were obtained by the addition of 1 mL lysis buffer (50 mM Tris–HCl, 150 mM NaCl, 1% Triton X-100™, 1 mM EDTA, pH 7.5) supplemented with a protease inhibitor cocktail (Calbiochem®, Merck Millipore, Billerica, MA, USA), were centrifuged at 13,000 g at 4°C to remove cell debris and precleared with 100 µL protein G Sepharose® (GE Healthcare) for 2 h at 4°C. The precleared lysates were incubated with antibodies against SNARE proteins (Syn4, SNAP-23, VAMP2, and VAMP8) for 2 h at 4°C for binding, and then the antibody–antigen complexes were precipitated by incubation with a protein G slurry overnight with constant shaking. After an extensive washing step with lysis buffer, an immunoblotting analysis was performed for the precipitates. The immunoprecipitated proteins and cell lysates were electrophoresed on 12% sodium dodecyl sulfate-polyacrylamide gel electrophoresis gels and then transferred to nitrocellulose blotting membranes (GE Healthcare). After blocking the membranes in TBST (10 mM Tris–HCl, 150 mM NaCl, and 0.05% Tween® 20, pH 8) containing 0.5% BSA and 5% skim milk for 1 h at room temperature, primary anti-SNAP-23 antibody (1:1,000 dilution) in TBST supplemented with 1% BSA and 0.01% sodium azide was added and incubated at 4°C overnight. The membranes were washed with TBST, treated with a horseradish peroxidase-conjugated secondary anti-mouse IgG antibody (A4416, Sigma-Aldrich), and visualized using enhanced chemiluminescence solution for the development of a luminescent signal.

[2] = test system: RBL-2H3 mast cells; assay: Degranulation assay, β-hexosaminidase release; type: cell-based, rat; details: for inhibition of mast cell degranulation with versus without A23187 pretreatment: PTD-conjugated peptides, read-outs β-hexosaminidase and histamine (Figure 4B); for reduction of β-hexosaminidase release: 10 µM PTD-fused peptide without SLO (LY294002 as positive control), DNP-BSA stimulation, no A23187 pretreatment, three independent experiments (Figure 2A gray bars, 2C); for inhibition of β-hexosaminidase release after A23187 pretreatment: cells pretreated with A23187, sensitized with DNP-IgE, then PTD-conjugated peptide (Figure 4B)
[3] = biological target: T2, SN23-Syn4-Vp8 SNARE complex (Rattus norvegicus, UniProt O70377+Q08850+Q9WUF4); assay: SNARE-driven membrane fusion (total lipid mixing) assay with proteoliposomes; type: biochemical; details: peptide added after preincubation of T- and V-liposomes at 4°C overnight (partially zippered SNAREs) (Figure 4A)
T2 construct: Syn4 (amino acids 1–298); SNAP-23 (amino acids 1–210); VAMP8 (amino acids 1–100); GST (N, cleaved yes); made in house; host or cells: Escherichia coli Rosetta(DE3)pLysS
T2 sequence (Q08850 1-298): T1 sequence (Q08850 1-298)
T2 sequence (O70377 1-210): T1 sequence (O70377 1-210)
T2 sequence (Q9WUF4 1-100): T1 sequence (Q9WUF4 1-100)

Sequence	SNARE complex formation in cells (amount of SN23-Syn4-Vp8 complex) [1]	inhibition of mast cell degranulation with versus without A23187 pretreatment [2]	inhibition of membrane fusion, peptide added after preincubation [3]	reduction of β-hexosaminidase release [2]	inhibition of β-hexosaminidase release after A23187 pretreatment [2]
EDEMEENLTQVGSILGN [SC23N, 17-mer peptide, N-terminal region of SNAP-23 SNARE motif SC23]	reduced	inhibited mast cell degranulation more efficiently than without pretreatment	inhibitory activities significantly diminished	–	–
LQSEVEGVKNIMTQNVE [Vp8N, 17-mer peptide, N-terminal region of VAMP8 SNARE motif]	reduced	inhibited mast cell degranulation more efficiently than without pretreatment	inhibitory activities significantly diminished	30–40%	inhibited both histamine and β-hexosaminidase release
SARHSEIQQLERTIREL [Syn4N, 17-mer peptide, N-terminal region of syntaxin 4 SNARE motif]	reduced	inhibited mast cell degranulation more efficiently than without pretreatment	inhibitory activities significantly diminished	30–40%	inhibited both histamine and β-hexosaminidase release

— PMC5904360, “Soluble N-Ethylmaleimide-Sensitive Factor Attachment Protein Receptor-Derived Peptides for Regulation of Mast Cell Degranulation” (Frontiers in Immunology, 2018)
